In article PMC7356998, “Intrinsic Dissolution Rate Profiling of Poorly Water-Soluble Compounds in Biorelevant Dissolution Media” (Pharmaceutics, 2020):
In brackets after ≈: the same amount, converted by molar mass.

How the values were obtained:
[1] = Intrinsic dissolution rate from miniaturized discs (DIDR), μDiss Profiler; format: physicochemical; conditions: disc (D), 100 rpm, mean ± SD
Procedure: Dissolution experiments were carried out in a small-scale dissolution apparatus using in situ fiber optic probes to measure the amount of drug dissolved over time by UV absorbance (μDiss Profiler, Pion Inc., Billerica, MA, USA). Drug dissolution was carried out from suspensions (S) or discs (D) depending on the solubility of the compound in the biorelevant media studied (Table 3). […] Standard curves were established by adding aliquots of DMSO stock solutions of the compounds to 3 mL of biorelevant medium, respectively. Dissolution media were prepared following the protocol provided by Biorelevant.com Ltd. and used within 48 h after their preparation. The media were incubated at 37 °C for at least one hour prior to use in the dissolution experiments. The hydrodynamic diameter of the micelles/vesicles formed in the biorelevant media were measured by DLS (Table 2). […] Stirring was turned off while measuring the UV absorbance for each aliquot and the standard curve was established based on six aliquots. […] Intrinsic dissolution rates will henceforth be denoted 'IDR' for both SIDR and DIDR values determined in this study (see Table 3 for details).

[2] = physchem; conditions: 37 °C, pH 6.5, fassif, thermodynamic from solid
Procedure: In these experiments, an excess amount of drug was added to triplicate Eppendorf tubes containing 1 mL of the respective dissolution medium. The tubes were vortexed and placed in a 37 °C incubator. Samples for HPLC analysis were taken 24, 48, and 72 h (triplicates at each time point) after initiation of the experiment to ensure that equilibrium had been reached. The samples were centrifuged at 37 °C, 23,000 g for 10 min (Heraeus Megafuge 8R, Thermo Scientific, Waltham, MA, USA). The supernatant was sampled, diluted 1:1 with acetonitrile, and kept refrigerated until HPLC analysis. […] The injection volumes were 20 μL.

IDRFaSSIF-V1 ([1]; FaSSIF-V1 pH 6.5, 37 °C): 3.2 ±0.1 μg/min/cm^2 | IDRFaSSIF-V2 ([1]; FaSSIF-V2 pH 6.5, 37 °C): 6.6 ± 0.8 μg/min/cm^2 | solubility thermodynamic [2]: 18.7 ± 1.3 µg/mL (≈ 63.1 µM)
Compound: C#C[C@]1(O)CC[C@H]2[C@@H]3CCc4cc(O)ccc4[C@H]3CC[C@@]21C [Ethinylestradiol]
